Source: paper PMC7806935, “Exosite inhibition of ADAMTS-5 by a glycoconjugated arylsulfonamide” (Scientific Reports, 2021)

Key:
[1] = molecular target: V1-5GAG, a truncated versican V1 variant (UniProt P13611)
ADAMTS-4 [2] = molecular target: T1, ADAMTS-4 (Homo sapiens, UniProt O75173); test: Versican digestion assay (V1-5GAG, sandwich ELISA), ADAMTS-4; format: biochemical; conditions: protein substrate V1-5GAG, mean ± SEM (n = 3)
T1 construct: made in house
T1 sequence (O75173 213-837): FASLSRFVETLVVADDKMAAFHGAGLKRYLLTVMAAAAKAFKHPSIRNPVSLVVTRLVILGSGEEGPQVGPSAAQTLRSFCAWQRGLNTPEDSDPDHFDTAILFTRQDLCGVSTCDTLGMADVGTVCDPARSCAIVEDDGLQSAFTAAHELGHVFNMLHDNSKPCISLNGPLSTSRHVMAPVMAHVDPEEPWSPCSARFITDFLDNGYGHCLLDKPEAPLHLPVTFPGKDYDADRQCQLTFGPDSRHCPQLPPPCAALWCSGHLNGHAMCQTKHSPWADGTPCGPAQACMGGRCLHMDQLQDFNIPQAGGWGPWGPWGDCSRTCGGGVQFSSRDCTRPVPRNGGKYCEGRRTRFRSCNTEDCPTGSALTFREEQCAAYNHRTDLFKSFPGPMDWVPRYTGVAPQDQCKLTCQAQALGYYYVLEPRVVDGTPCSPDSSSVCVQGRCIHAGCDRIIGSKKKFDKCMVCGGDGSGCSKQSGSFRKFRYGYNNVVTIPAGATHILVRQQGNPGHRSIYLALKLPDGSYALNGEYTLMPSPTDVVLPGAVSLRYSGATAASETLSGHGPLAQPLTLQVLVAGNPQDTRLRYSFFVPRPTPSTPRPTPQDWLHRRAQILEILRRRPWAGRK
Method: (§1) All enzyme assays were conducted in TNC-B buffer (50 mM Tris–HCl, pH 7.5, 150 mM NaCl, 10 mM CaCl2, and 0.02% NaN3) at 37 °C. To avoid the formation of inhibitor aggregates, the detergent Brij-35 (0.05%) was added to the assay buffer. No aggregation was visually observed at concentrations up to 2 mM. The inhibitor stock solutions in DMSO (10 mM) were diluted at different concentrations in assay buffer and incubated with ADAMTS-4 or ADAMTS-5 for 2 h at 37 °C. Percent of inhibition was calculated from control reactions containing only DMSO. IC50 values were determined using the formula: vi/v0 = 1/(1 + [I]/IC50) where vi is the initial velocity of substrate cleavage in the presence of the inhibitor at concentration [I] and v0 is the initial velocity in the presence of an equal concentration (v/v) of DMSO.
(§2) ADAMTS-5 full-length (FL) (final concentration 0.4 nM), ADAMTS-5 MDTCS (0.4 nM) ADAMTS-5 MD (26 nM) or ADAMTS-4 (5.5 nM) were incubated with different concentrations of inhibitors or DMSO for 2 h at 37 °C in TNC-B buffer before addition of V1-5GAG (50 nM). At different time points (0–20 min), sub-samples were removed and reactions were stopped with EDTA. Maxisorp plates (VWR, Lutterworth, UK) were coated with 5 μg/mL anti-DPEEAE neoepitope antibody (Cat n. PA1-1748A, Life Technologies, Paisley, UK) in carbonate buffer pH 9.6 (16 h, 4 °C). This neoepitope antibody specifically recognizes the N-terminal versican fragment versikine, generated when ADAMTS-5 cleaves versican at the Glu441↓442Ala bond. Washing steps were performed in triplicate with 300 μL phosphate buffered-saline (PBS) containing 0.1% Tween-20 between each step. Plates were blocked with 3% bovine serum albumin (BSA)/PBS for 2 h, at RT. The samples from the digestion experiments were diluted in 3% BSA/PBS and added to the plate (100 μL, 2 h, RT). Bound versikine fragments were detected using anti-G1 monoclonal antibody (Cat n. ab171887, Abcam, Cambridge, UK) (3 μg/mL in 0.5% BSA/PBS, 1.5 h, RT), followed by horseradish peroxidase (HRP)-conjugated anti-mouse antibodies (Cat. N. P044701-2, Agilent Technologies LTD, Cheadle, UK) (2.4 μg/mL, 1 h, RT). The assay was developed by addition of o-phenylenediamine dihydrochloride (OPD, Cat n. 34006, Sigma Aldrich, Gillingham, UK) for 10 min and reactions were stopped with 2 M H2SO4. The absorbance was measured at 492 nm using a BioTeK Epoch (BioTek, Swindon, UK) plate reader. For each dilution, the amount of neoepitope generated was derived from a standard curve (0–1.56 nM) of V1-5GAG completely digested with ADAMTS-5. Initial velocities were calculated from the concentration of versikine generated as a function of reaction time and IC50 values were determined.
(§3) For inhibition studies, initial rates of proteolysis (< 20% cleavage) were analyzed between 0 and 20 min. For determination of the specificity constants (kcat/Km), digestion reactions were allowed to occur to completion (0–2 h). Data were analyzed as previously described.

ADAMTS-5 [3] = molecular target: T2, ADAMTS-5 (Homo sapiens, UniProt Q9UNA0); test: Versican digestion assay (V1-5GAG, sandwich ELISA), ADAMTS-5; format: biochemical; conditions: for IC50: protein substrate V1-5GAG, mean ± SEM (n = 3)
T2 construct: made in house
T2 sequence (Q9UNA0 262-930): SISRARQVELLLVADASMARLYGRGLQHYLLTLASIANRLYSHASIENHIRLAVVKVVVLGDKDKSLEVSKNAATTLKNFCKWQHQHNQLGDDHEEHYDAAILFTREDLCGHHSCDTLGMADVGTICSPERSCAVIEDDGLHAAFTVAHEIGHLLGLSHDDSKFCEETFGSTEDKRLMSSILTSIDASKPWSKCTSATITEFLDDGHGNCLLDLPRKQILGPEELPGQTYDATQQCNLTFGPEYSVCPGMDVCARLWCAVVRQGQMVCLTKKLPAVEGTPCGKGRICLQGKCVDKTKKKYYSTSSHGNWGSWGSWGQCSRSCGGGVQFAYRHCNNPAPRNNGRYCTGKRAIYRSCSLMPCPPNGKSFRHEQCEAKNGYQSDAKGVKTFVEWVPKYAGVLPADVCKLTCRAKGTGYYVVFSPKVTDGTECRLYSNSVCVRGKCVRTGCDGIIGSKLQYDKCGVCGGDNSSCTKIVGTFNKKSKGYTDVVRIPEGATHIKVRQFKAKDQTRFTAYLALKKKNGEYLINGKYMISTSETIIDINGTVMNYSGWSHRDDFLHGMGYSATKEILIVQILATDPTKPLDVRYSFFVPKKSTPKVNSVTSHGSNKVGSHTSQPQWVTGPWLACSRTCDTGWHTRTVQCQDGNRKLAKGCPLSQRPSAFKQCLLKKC
Method: as §1, §2, §3

ADAMTS-5 [4] = molecular target: T2, ADAMTS-5; test: QF peptide cleavage assay, ADAMTS-5; format: biochemical; conditions: 12-residue QF peptide substrate; mean ± SEM (n = 3); read-out: IC50 (μM) QF peptide ATS5
Method: as §1
(§4) QF peptide cleavage assays were conducted in 96-well black microtiter plates (Scientific Laboratories Supplies Ltd, Wilford, UK) using a Fluostar Omega microplate reader (BMG Labtech, Aylesbury, UK). The activity of ADAMTS-4 (1 nM) and -5 (5 nM) was monitored for 2 h using the fluorescent peptide substrates fluorescein 5(6)-carbonyl-Ala-Glu-Leu-[…]-Gly-Arg-Pro-Ile-Ser-Ile-Ala-Lys-N,N,N0,N0-tetramethyl-6-carboxyrhodamine-NH2 (FAM-AE ~ LQGRPISIAK-TAMRA, ADAMTS-4) and fluorescein 5(6)-carbonyl-Thr-Glu-Ser-Glu ~ Ser-Arg-Gly-Ala-Ile-Tyr-Lys-Lys-N,N,N0,N0-tetramethyl-6-carboxyrhodamine-NH2 (FAM-TESE ~ SRGAIYKK-TAMRA, ADAMTS-5) (custom-synthesized by Bachem, Bubendorf, Switzerland) with an excitation wavelength of 485 nm and an emission wavelength of 538 nm. Final substrate concentrations were 1 μM and 40 μM for ADAMTS-4 and -5, respectively. Fluorescence was expressed in relative fluorescence units (RFU) and normalized against a blank containing only buffer and substrate. Emission spectra were recorded at several concentrations of each compound to exclude auto-fluorescence and maximal inhibitor concentrations were selected accordingly.

ADAMTS-4 [5] = molecular target: T1, ADAMTS-4; test: QF peptide cleavage assay, ADAMTS-4; format: biochemical; conditions: 12-residue QF peptide substrate; mean ± SEM (n = 3); read-out: IC50 (μM) QF peptide ATS4
Method: as §1, §4

[6] = read-out: IC50 (μM) V1-5GAG ATS4
[7] = read-out: IC50 (μM) V1-5GAG ATS5

Row | Compound | kcat/Km for proteolysis of V1-5GAG (time course at 50 nM substrate, versikine by sandwich ELISA) [1] [M⁻¹ s⁻¹] | IC50 (ADAMTS-4 [2]; read-out: IC50 (μM) ADAMTS-4) [µM] | IC50 (ADAMTS-5 [3]; read-out: IC50 (μM) ADAMTS-5) [µM] | also measured
1 | ADAMTS-5 MDTCS K532A/K533A (enzyme) | 675000 | – | – | –
2 | CCC(C)N(Cc1cn(CCCOC2OC(CO)C(O)C(O)C2NC(C)=O)nn1)S(=O)(=O)c1ccc(OCc2ccccc2)cc1 (mixture of isomers) [Compound 4d] | – | – | – | IC50 (ADAMTS-4 [2]; [6]): 180 ± 50 µM; IC50 (ADAMTS-5 [3]; [7]): 90 ± 23 µM; IC50 (ADAMTS-5 [4]): > 50 µM; IC50 (ADAMTS-4 [5]): > 50 µM
3 | ADAMTS-5 MDTCS K533H (enzyme) | 1.56e+06 | – | – | –
4 | ADAMTS-5 MDTCS K532Q/K533Q (enzyme) | 401000 | – | – | –
5 | ADAMTS-5 MDTCS (lacking the C-terminal TS motif) (enzyme) | 3.23e+06 | – | – | –
6 | ADAMTS-5 MDTCS K533A (enzyme) | 1.25e+06 | – | – | –
7 | CCC(C)N(Cc1cn(CCCOC2OC(CO)C(O)C(O)C2NC(C)=O)nn1)S(=O)(=O)c1ccc(OCc2ccc(F)cc2Cl)cc1 (mixture of isomers) [Compound 4c] | – | – | – | IC50 (ADAMTS-4 [2]; [6]): 90 ± 44 µM; reduction in inhibitory properties (ADAMTS-5 [3]; benzyloxyphenyl compound compared to 4b): 6 fold; IC50 (ADAMTS-5 [3]; [7]): 62 ± 12 µM; IC50 (ADAMTS-5 [4]): 57 ± 10 µM; IC50 (ADAMTS-4 [5]): > 50 µM

Continued, in another order:

Row | kcat/Km for proteolysis of V1-5GAG (time course at 50 nM substrate, versikine by sandwich ELISA) [1] [M⁻¹ s⁻¹] | IC50 (ADAMTS-4 [2]; read-out: IC50 (μM) ADAMTS-4) [µM] | IC50 (ADAMTS-5 [3]; read-out: IC50 (μM) ADAMTS-5) [µM] | Compound | also measured
8 | – | > 50 | > 50 | CC(=O)N[C@@H]1[C@@H](O)[C@H](O)[C@@H](CO)O[C@H]1n1cc(CN([C@@H](C(=O)OCc2ccccc2)C(C)C)S(=O)(=O)c2ccc(-c3ccccc3)cc2)nn1 [Compound 3a] | –
9 | – | 50 ± 16 | 120 ± 20 | CCC(C)N(Cc1cn(C2OC(CO)C(O)C(O)C2NC(C)=O)nn1)S(=O)(=O)c1ccc(-c2ccccc2)cc1 (mixture of isomers) [Compound 3b] | reduction in inhibition of ADAMTS-5 versicanase activity (ADAMTS-5 [3]; sugar directly linked to the sulfonamide scaffold, compared with n-propyloxy link): ~ 13 fold
10 | – | > 50 | > 50 | CC(=O)N[C@H]1[C@H](OCCCn2cc(CN([C@@H](C(=O)OCc3ccccc3)C(C)C)S(=O)(=O)c3ccc(-c4ccccc4)cc3)nn2)O[C@H](CO)[C@@H](O)[C@@H]1O [Compound 4a] | –
